Results published in patent publication US20070015832A1, “Methods of treating overactive bladder and urinary incontinence” (Myriad Genetics, Incorporated, priority 2005, published 2007).
Like-named read-outs stand apart in the source and are kept apart here.

Settings: oral tablets, placebo group 6 patients
Protocol: Subjects will be stratified at randomization for use/non-use of AChE inhibitors. A target of 201 subjects (67 subjects per arm) in 3 treatment groups are enrolled for 12 Months with optional follow-on treatment after Month 12 (2 treatment groups).
The intraday dosing interval is approximately 12 hours. Study drug is instructed to be taken at approximately the same time each day during the participation in the 12-month study. Study medication may be taken with or without food.

In the case of `C[C@@H](C(=O)O)c1ccc(-c2ccccc2)c(F)c1` [(R)-2-(2-fluoro-4-biphenyl)propionic acid], the “patients exhibiting urinary incontinence” value (400 mg BID group (800 mg/day), p value vs. placebo = 0.028) is reported as 0 patients and the “patients exhibiting urinary incontinence” value (800 mg BID group (1600 mg/day), p value vs. placebo = 0.063) is reported as 1 patient.
